This is an account of results in patent US20250026721A1, “COMPOUNDS AND METHODS FOR MODULATING RAS-PI3K” (Vividion Therapeutics, Inc., priority 2023, published 2025).

In test [1] the target is T1, PIK3CA (Homo sapiens, UniProt P42336).
T1 construct: endogenous in cells; host or cells: Jurkat cell lysate
The experiment in a line: In vitro ELISA target engagement assay for PIK3CA in Jurkat cellular lysate (competition with PIK3CA Biotin Probe). It counts as binding. To be noted: 1 hour at rt, then 500 nM PIK3CA Biotin Probe, read-out: Elisa Target Engagement Assay (TE50). The essentials: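 Competition format in Jurkat lysate: compound (serial dilutions, top 200 μM) for 1 h at rt, then 500 nM final biotinylated PIK3CA probe for 1 h at rt. Sandwich ELISA with capture antibody and Neutravidin-HRP luminescence read-out measured probe-labelled PIK3CA, giving TE50.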
A general note: An ELISA detects its analyte on a solid surface through an enzyme-linked reagent.

Test [2] has as its target T2, PIK3CA_C242 (Homo sapiens, UniProt P42336).
T2 construct: endogenous in cells; host or cells: Jurkat cell lysate
Put plainly: Proteomic TE50 (IA-DTB / TMT mass spectrometry) in Jurkat cell lysate. The note with it: 1 hour at rt, 7-point dose response. It counts as binding. Put shortly:
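Cysteine engagement was read by targeted TMT MS3 of the IA-DTB-labelled, streptavidin-enriched C242 tryptic peptide. Beforehand, Jurkat lysate was exposed to a 7-point 1:5 compound series for 1 h at rt, then to 200 μM IA-DTB for 1 h. Reporter S/N curves gave TE50.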

T2 sequence (P42336 whole entry): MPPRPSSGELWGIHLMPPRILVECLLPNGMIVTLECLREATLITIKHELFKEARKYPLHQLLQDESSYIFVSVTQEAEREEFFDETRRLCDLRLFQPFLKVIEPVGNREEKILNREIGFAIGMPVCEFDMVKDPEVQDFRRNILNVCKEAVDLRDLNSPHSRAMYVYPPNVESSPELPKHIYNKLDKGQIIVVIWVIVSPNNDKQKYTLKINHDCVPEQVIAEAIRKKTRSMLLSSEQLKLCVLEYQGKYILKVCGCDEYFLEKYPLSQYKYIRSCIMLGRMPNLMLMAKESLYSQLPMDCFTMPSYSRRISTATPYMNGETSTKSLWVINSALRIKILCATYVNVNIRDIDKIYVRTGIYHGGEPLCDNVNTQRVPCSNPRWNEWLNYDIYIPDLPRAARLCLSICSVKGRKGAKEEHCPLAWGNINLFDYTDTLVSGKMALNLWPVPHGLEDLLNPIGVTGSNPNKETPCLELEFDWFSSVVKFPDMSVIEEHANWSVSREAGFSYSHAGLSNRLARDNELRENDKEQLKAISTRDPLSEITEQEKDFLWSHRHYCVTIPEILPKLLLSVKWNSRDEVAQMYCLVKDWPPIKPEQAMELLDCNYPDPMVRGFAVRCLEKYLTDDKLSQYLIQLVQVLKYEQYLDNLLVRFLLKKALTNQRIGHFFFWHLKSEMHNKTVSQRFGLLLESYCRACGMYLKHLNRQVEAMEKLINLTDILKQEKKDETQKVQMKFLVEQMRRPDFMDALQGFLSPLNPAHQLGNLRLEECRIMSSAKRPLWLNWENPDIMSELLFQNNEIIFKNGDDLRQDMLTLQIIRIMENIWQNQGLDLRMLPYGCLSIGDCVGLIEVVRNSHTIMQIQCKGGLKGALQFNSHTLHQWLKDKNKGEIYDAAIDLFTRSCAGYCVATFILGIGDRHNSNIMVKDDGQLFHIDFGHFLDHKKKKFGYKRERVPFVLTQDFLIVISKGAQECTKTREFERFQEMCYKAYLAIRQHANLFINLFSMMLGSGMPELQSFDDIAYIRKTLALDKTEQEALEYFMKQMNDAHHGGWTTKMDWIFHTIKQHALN
T2 sequence (P27986 whole entry partner): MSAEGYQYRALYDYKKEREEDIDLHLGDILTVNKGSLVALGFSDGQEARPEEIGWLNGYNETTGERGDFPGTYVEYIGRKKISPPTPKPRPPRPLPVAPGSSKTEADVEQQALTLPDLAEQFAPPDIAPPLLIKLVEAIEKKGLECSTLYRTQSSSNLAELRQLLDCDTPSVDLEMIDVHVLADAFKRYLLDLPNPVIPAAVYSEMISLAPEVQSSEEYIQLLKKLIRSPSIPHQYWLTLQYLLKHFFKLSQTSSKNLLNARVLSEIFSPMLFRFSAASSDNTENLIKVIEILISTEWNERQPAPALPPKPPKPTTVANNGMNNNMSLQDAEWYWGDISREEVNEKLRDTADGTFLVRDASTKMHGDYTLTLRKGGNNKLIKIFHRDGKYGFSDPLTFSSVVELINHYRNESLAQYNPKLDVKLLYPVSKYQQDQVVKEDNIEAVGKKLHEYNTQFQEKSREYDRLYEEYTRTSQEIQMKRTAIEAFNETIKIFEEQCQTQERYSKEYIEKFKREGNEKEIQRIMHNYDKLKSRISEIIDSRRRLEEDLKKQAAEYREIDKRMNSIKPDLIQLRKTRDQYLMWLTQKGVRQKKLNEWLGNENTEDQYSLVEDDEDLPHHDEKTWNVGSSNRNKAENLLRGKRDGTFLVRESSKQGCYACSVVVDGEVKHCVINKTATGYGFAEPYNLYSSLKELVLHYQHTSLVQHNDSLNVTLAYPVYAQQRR
T1 sequence (P42336 whole entry): as the sequence (P42336 whole entry) above
T1 sequence (P27986 whole entry partner): as the sequence (P27986 whole entry partner) above

`C[C@@H](/C=C\S(C)(=O)=O)NC(=O)C1(F)CCN(S(=O)(=O)c2ccc(Cl)cc2-c2cccc(OCc3cccc(Cl)c3)c2)CC1` [Compound 266, (S,Z)-1-((5-chloro-3′-((3-chlorobenzyl)oxy)-[1,1′-biphenyl]-2-yl)sulfonyl)-4-fluoro-N-(4-(methylsulfonyl)but-3-en-2-yl)piperidine-4-carboxamide]: the values for the IC50 in test [1] and in test [2] were 0.75 µM and 0.6 µM, respectively.
With `N#C/C=C\CNC(=O)C1(F)CCN(S(=O)(=O)c2ccc(Br)cc2-c2ccccc2Cl)CC1` [Compound 70, (Z)-1-((5-bromo-2′-chloro-[1,1′-biphenyl]-2-yl)sulfonyl)-N-(3-cyanoallyl)-4-fluoropiperidine-4-carboxamide], the IC50 is 0.095 µM in test [1] and 0.07 µM in test [2].
In the case of `COc1cc(-c2ccccc2)c(S(=O)(=O)N2CCC(F)(C(=O)N[C@@H](C)/C=C\S(C)(=O)=O)CC2)cn1` [Compound 192, (S,Z)-4-fluoro-1-((6-methoxy-4-phenylpyridin-3-yl)sulfonyl)-N-(4-(methylsulfonyl)but-3-en-2-yl)piperidine-4-carboxamide], the IC50 worked out at 0.28 µM in test [1] and 0.24 µM in test [2].
Take `Cc1ccccc1-c1cc(OC2CC2)ccc1S(=O)(=O)N1CCC(F)(C(=O)N[C@H](C)/C=C\S(C)(=O)=O)CC1` [Compound 106, (R,Z)-1-((5-cyclopropoxy-2′-methyl-[1,1′-biphenyl]-2-yl)sulfonyl)-4-fluoro-N-(4-(methylsulfonyl)but-3-en-2-yl)piperidine-4-carboxamide]: the IC50 in test [1] worked out at 0.82 µM; in test [2], 0.31 µM.
For `COc1cccc(-c2cc(F)ccc2S(=O)(=O)N2CCC(F)(C(=O)N[C@@H](C)/C=C\S(C)(=O)=O)CC2)c1` [Compound 9, (S,Z)-4-fluoro-1-((5-fluoro-3′-methoxy-[1,1′-biphenyl]-2-yl)sulfonyl)-N-(4-(methylsulfonyl)but-3-en-2-yl)piperidine-4-carboxamide], in that order: 0.57 µM and 0.507 µM.
For `CC#Cc1cccc(-c2cc(Cl)ccc2S(=O)(=O)N2CCC(F)(C(=O)N[C@@H](C)/C=C\S(C)(=O)=O)CC2)c1` [Compound 100, (S,Z)-1-((5-chloro-3′-(prop-1-yn-1-yl)-[1,1′-biphenyl]-2-yl)sulfonyl)-4-fluoro-N-(4-(methylsulfonyl)but-3-en-2-yl)piperidine-4-carboxamide] the same measures were 0.099 µM and 0.096 µM.
For `C[C@@H](/C=C\S(C)(=O)=O)NC(=O)C1(F)CCN(S(=O)(=O)c2ccc(Cl)cc2-c2cccc(OC3CC3)c2)CC1` [Compound 15, (S,Z)-1-((5-chloro-3′-cyclopropoxy-[1,1′-biphenyl]-2-yl)sulfonyl)-4-fluoro-N-(4-(methylsulfonyl)but-3-en-2-yl)piperidine-4-carboxamide] the same measures were 0.41 µM and 0.4 µM.
As for `C[C@H](/C=C\S(C)(=O)=O)NC(=O)C1(F)CCN(S(=O)(=O)c2ccc(Cl)cc2-c2ccccc2)CC1` [Compound 20, (R,Z)-1-((5-chloro-[1,1′-biphenyl]-2-yl)sulfonyl)-4-fluoro-N-(4-(methylsulfonyl)but-3-en-2-yl)piperidine-4-carboxamide], the figures for the IC50 in test [1] and in test [2] were 0.68 µM and 0.462 µM, respectively.
In the case of `COc1ccc(S(=O)(=O)N2CCC(F)(C(=O)N[C@H](C)/C=C\S(C)(=O)=O)CC2)c(-c2ccccc2)c1` [Compound 21, (R,Z)-4-fluoro-1-((5-methoxy-[1,1′-biphenyl]-2-yl)sulfonyl)-N-(4-(methylsulfonyl)but-3-en-2-yl)piperidine-4-carboxamide], the values for the IC50 in test [1] and in test [2] were 1 µM and 1.23 µM, respectively.
For `CCCOc1cccc(-c2cc(Cl)ccc2S(=O)(=O)N2CCC(F)(C(=O)N[C@@H](C)/C=C\S(C)(=O)=O)CC2)c1` [Compound 14, (S,Z)-1-((5-chloro-3′-propoxy-[1,1′-biphenyl]-2-yl)sulfonyl)-4-fluoro-N-(4-(methylsulfonyl)but-3-en-2-yl)piperidine-4-carboxamide], in that order: 0.47 µM and 0.33 µM.
Regarding `CCOc1ccc(S(=O)(=O)N2CCC(F)(C(=O)N[C@H](C)/C=C\S(C)(=O)=O)CC2)c(-c2ccccc2C)c1` [Compound 102, (R,Z)-1-((5-ethoxy-2′-methyl-[1,1′-biphenyl]-2-yl)sulfonyl)-4-fluoro-N-(4-(methylsulfonyl)but-3-en-2-yl)piperidine-4-carboxamide], the values for the IC50 in test [1] and in test [2] were 0.73 µM and 0.61 µM, respectively.
For `CCCNC(=O)c1cccc(-c2cc(Cl)ccc2S(=O)(=O)N2CCC(F)(C(=O)N[C@@H](C)/C=C\S(C)(=O)=O)CC2)c1` [Compound 279, (S,Z)-1-((5-chloro-3′-(propylcarbamoyl)-[1,1′-biphenyl]-2-yl)sulfonyl)-4-fluoro-N-(4-(methylsulfonyl)but-3-en-2-yl)piperidine-4-carboxamide], in that order: 1 µM and 1.53 µM.
For `CCc1ccc(S(=O)(=O)N2CCC(F)(C(=O)N[C@H](C)/C=C\S(C)(=O)=O)CC2)c(-c2ccccc2Cl)c1` [Compound 111, (R,Z)-1-((2′-chloro-5-ethyl-[1,1′-biphenyl]-2-yl)sulfonyl)-4-fluoro-N-(4-(methylsulfonyl)but-3-en-2-yl)piperidine-4-carboxamide] the same measures were 0.32 µM and 0.21 µM.
For `C[C@@H](/C=C\S(C)(=O)=O)NC(=O)C1(F)CCN(S(=O)(=O)c2ccc(Cl)cc2-c2cccc(OCc3ccccc3Cl)c2)CC1` [Compound 265, (S,Z)-1-((5-chloro-3′-((2-chlorobenzyl)oxy)-[1,1′-biphenyl]-2-yl)sulfonyl)-4-fluoro-N-(4-(methylsulfonyl)but-3-en-2-yl)piperidine-4-carboxamide], the results for the IC50 in test [1] and in test [2] were 0.33 µM and 0.39 µM, respectively.
As to `C[C@H](/C=C\S(C)(=O)=O)NC(=O)C1(F)CCN(S(=O)(=O)c2ccc(C3COC3)cc2-c2ccccc2Cl)CC1` [Compound 132, (R,Z)-1-((2′-chloro-5-(oxetan-3-yl)-[1,1′-biphenyl]-2-yl)sulfonyl)-4-fluoro-N-(4-(methylsulfonyl)but-3-en-2-yl)piperidine-4-carboxamide], the IC50 in test [1] amounted to 0.524 µM; in test [2], 0.468 µM.
For `N#C/C=C/CNC(=O)C1(F)CCN(S(=O)(=O)c2ccc(Br)cc2-c2ccccc2Cl)CC1` [Compound 68, (E)-1-((5-bromo-2′-chloro-[1,1′-biphenyl]-2-yl)sulfonyl)-N-(3-cyanoallyl)-4-fluoropiperidine-4-carboxamide], in that order: 0.465 µM and 0.33 µM.
Turning to `COc1cccc(-c2cc(OC)ccc2S(=O)(=O)N2CCC(F)(C(=O)N[C@@H](C)/C=C\S(C)(=O)=O)CC2)c1` [Compound 5, (S,Z)-1-((3′,5-dimethoxy-[1,1′-biphenyl]-2-yl)sulfonyl)-4-fluoro-N-(4-(methylsulfonyl)but-3-en-2-yl)piperidine-4-carboxamide], the IC50 came out at 0.2 µM in test [1] and 0.187 µM in test [2].
For `Cc1ccccc1-c1cc(N2CCOCC2)ccc1S(=O)(=O)N1CCC(F)(C(=O)N[C@H](C)/C=C\S(C)(=O)=O)CC1` [Compound 122, (R,Z)-4-fluoro-1-((2′-methyl-5-morpholino-[1,1′-biphenyl]-2-yl)sulfonyl)-N-(4-(methylsulfonyl)but-3-en-2-yl)piperidine-4-carboxamide] the same measures were 0.61 µM and 0.49 µM.
